# In PubChem BioAssay (NCI):
#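 Briefly, cells in 96-well plates were exposed to five compound concentrations for 48 h, and endpoints were estimated by linear interpolation. TGI denotes the concentration required for complete inhibition of growth.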
# Experiments:
# Test in all cases: DTP human tumour cell line panel, 48 h
# K-562 leukemia = test system: K-562 leukemia
# HCT-15 colon = test system: HCT-15 colon
# MDA-MB-435 = test system: MDA-MB-435
# HCC-2998 colon = test system: HCC-2998 colon
# NCI-H226 lung = test system: NCI-H226 lung
# PC-3 prostate = test system: PC-3 prostate
# UACC-257 melanoma = test system: UACC-257 melanoma
# NCI-H522 lung = test system: NCI-H522 lung
# UACC-62 melanoma = test system: UACC-62 melanoma
# RXF 393 renal = test system: RXF 393 renal
# OVCAR-3 ovarian = test system: OVCAR-3 ovarian
# OVCAR-5 ovarian = test system: OVCAR-5 ovarian
# RPMI-8226 leukemia = test system: RPMI-8226 leukemia
# ACHN renal = test system: ACHN renal
# SN12C renal = test system: SN12C renal
# TK-10 renal = test system: TK-10 renal
# SK-MEL-28 melanoma = test system: SK-MEL-28 melanoma
# SNB-19 CNS = test system: SNB-19 CNS
# SK-MEL-5 melanoma = test system: SK-MEL-5 melanoma
# M14 melanoma = test system: M14 melanoma
SMILES,TGI (K-562 leukemia),TGI (HCT-15 colon),TGI (MDA-MB-435),TGI (HCC-2998 colon),TGI (NCI-H226 lung),TGI (PC-3 prostate),TGI (UACC-257 melanoma),TGI (NCI-H522 lung),TGI (UACC-62 melanoma),TGI (RXF 393 renal),TGI (OVCAR-3 ovarian),TGI (OVCAR-5 ovarian),TGI (RPMI-8226 leukemia),TGI (ACHN renal),TGI (SN12C renal),TGI (TK-10 renal),TGI (SK-MEL-28 melanoma),TGI (SNB-19 CNS),TGI (SK-MEL-5 melanoma),TGI (M14 melanoma)
Cn1c2ccccc2c2c3c(c4c5ccccc5n(C5OC(CO)C(O)C(O)C5O)c4c21)C(=O)OC3=O (stereo not given),> 100 µM,> 100 µM,> 100 µM,> 100 µM,> 100 µM,> 100 µM,> 100 µM,> 100 µM,> 100 µM,> 100 µM,> 100 µM,> 100 µM,> 100 µM,> 100 µM,> 100 µM,> 100 µM,> 100 µM,> 100 µM,> 100 µM,> 100 µM
CN1c2c(nc(N)[nH]c2=O)NCC1CCNc1ccc(C(=O)NC(CCC(=O)O)C(=O)O)cc1 (stereo not given),841 µM,3010 µM,1770 µM,2080 µM,3050 µM,1750 µM,2360 µM,2470 µM,1650 µM,2490 µM,2460 µM,2880 µM,2930 µM,2000 µM,2350 µM,2500 µM,2290 µM,3250 µM,2470 µM,1770 µM
Nc1ncnc2c1ncn2[C@@H]1O[C@H](COP(=O)(O)OP(=O)(O)OC[C@H]2O[C@@H](OCCCO)[C@H](O)[C@@H]2O)[C@@H](O)[C@H]1O,> 100 µM,> 100 µM,> 100 µM,> 100 µM,> 100 µM,> 100 µM,> 100 µM,> 100 µM,> 100 µM,> 100 µM,> 100 µM,> 100 µM,> 100 µM,> 100 µM,> 100 µM,> 100 µM,> 100 µM,> 100 µM,> 100 µM,> 100 µM
CC1=C[C@H]([C@H]2C=C(C)C(C(N)=O)=CN2Cc2c(Cl)cccc2Cl)N(Cc2c(Cl)cccc2Cl)C=C1C(N)=O,> 75 µM,> 75 µM,> 75 µM,> 75 µM,> 75 µM,> 75 µM,> 75 µM,> 75 µM,> 75 µM,> 75 µM,> 75 µM,> 75 µM,> 75 µM,> 75 µM,> 75 µM,> 75 µM,> 75 µM,> 75 µM,> 75 µM,> 75 µM
CC[C@]1(Cc2ccc(OC)c(OC)c2)C2CC(C(=O)OC)ON2O[C@H](OCc2ccccc2)[C@@H]1OC(C)=O (stereo not given in full),> 100 µM,> 100 µM,> 100 µM,> 100 µM,> 100 µM,> 100 µM,> 100 µM,> 100 µM,> 100 µM,> 100 µM,> 100 µM,> 100 µM,> 100 µM,> 100 µM,> 100 µM,> 100 µM,> 100 µM,> 100 µM,> 100 µM,> 100 µM
